From ChEMBL document CHEMBL3832761, “MMV Pathogen Box Bioactivity Data” (2017)
In brackets after ≈: the same amount, converted by molar mass.

Assays:
[1] = test system: Plasmodium falciparum; assay: Antimalarial activity: Asexual Blood Stage Plasmodium falciparum 3D7 IC50 (uM); format: functional, organism-based
[2] = test system: Plasmodium falciparum; assay: Antimalarial activity: Asexual Blood Stage Plasmodium falciparum Dd2 IC50 (uM); format: functional, organism-based
[3] = test system: Plasmodium falciparum; assay: Antimalarial activity: Asexual Blood Stage Plasmodium falciparum W2 IC50 (uM); format: functional, organism-based
[4] = test system: Plasmodium berghei; assay: Antimalarial activity: Liver Stage Plasmodium berghei sporozoite Luciferase assay: inhibition at 10 uM (%); format: functional
[5] = test system: Plasmodium falciparum; assay: Antimalarial activity: Gametocytes Plasmodium falciparum NF54 Gametocytes Stage V: inhibition at 10 uM (%); format: functional
[6] = test system: HepG2; assay: HepG2 inhibition at 10 uM (%) Cytotoxicity; format: functional; details: Homo sapiens
[7] = test system: HepG2; assay: Cytotoxicity data HepG2 CC20 (uM); format: functional
[8] = test system: MRC5; assay: MRC5 CC50 (uM) Cytotoxicity; format: functional; details: Homo sapiens
[9] = test system: Mycobacterium tuberculosis; assay: AntiMycobacterium tuberculosis activity Non-Replicating form: Average MIC90 (uM); format: functional
[10] = test system: Mycobacterium tuberculosis; assay: AntiMycobacterium tuberculosis activity 1-week GAST/Fe MIC (uM); format: functional; details: 168 h
[11] = test system: Mycobacterium tuberculosis; assay: AntiMycobacterium tuberculosis activity 2-week GAST/Fe MIC (uM); format: functional; details: 336 h
[12] = test system: Mycobacterium tuberculosis; assay: AntiMycobacterium tuberculosis activity 1-week 7H9/ADC/Tw MIC (uM); format: functional; details: 168 h
[13] = test system: Mycobacterium tuberculosis; assay: AntiMycobacterium tuberculosis activity 2-week 7H9/ADC/Tw MIC (uM); format: functional; details: 336 h
[14] = test system: Mycobacterium tuberculosis; assay: AntiMycobacterium tuberculosis activity 2-week Alamar Blue 7H9/ADC/Tw MIC (uM); format: functional; details: 336 h
[15] = test system: Mycobacterium tuberculosis; assay: AntiMycobacterium tuberculosis activity 1-week 7H9/glucose/BSA/Tx MIC (uM); format: functional; details: 168 h
[16] = test system: Mycobacterium tuberculosis; assay: AntiMycobacterium tuberculosis activity 2-week 7H9/glucose/BSA/Tx MIC (uM); format: functional; details: 336 h
[17] = test system: Mycobacterium tuberculosis; assay: AntiMycobacterium tuberculosis activity 1-week 7H9/DPPC/cholesterol/BSA/Tx MIC (uM); format: functional; details: 168 h
[18] = test system: Mycobacterium tuberculosis; assay: AntiMycobacterium tuberculosis activity 2-week 7H9/DPPC/cholesterol/BSA/Tx MIC (uM); format: functional; details: 336 h
[19] = test system: Mycobacterium tuberculosis; assay: AntiMycobacterium tuberculosis activity 1-week 7H9/cholesterol/BSA/Tx MIC (uM); format: functional; details: 168 h
[20] = test system: Mycobacterium tuberculosis; assay: AntiMycobacterium tuberculosis activity 2-week Alamar Blue 7H9/cholesterol/BSA/Tx MIC (uM); format: functional; details: 336 h
[21] = test system: Mycobacterium tuberculosis; assay: (§1) AntiMycobacterium tuberculosis activity day 10 in 7H9/2.5mM butyrate/pH6/0.1mM nitrite MIC90 (uM); format: functional; details: 240 h
[22] = test system: Mycobacterium tuberculosis; assay: AntiMycobacterium tuberculosis activity day 21 in 7H9/2.5mM butyrate/pH6/0.1mM nitrite MIC90 (uM); format: functional; details: 504 h
[23] = test system: Mycobacterium tuberculosis; assay: as §1; format: functional; details: 240 h; remark: listed apart in the source
[24] = test system: Mycobacterium tuberculosis; assay: AntiMycobacterium tuberculosis activity day 21 MIC99 in 7H9/2.5mM butyrate/pH6/0.1mM nitrite MIC99 (uM); format: functional; details: 504 h
[25] = test system: Mycobacterium tuberculosis; assay: AntiMycobacterium tuberculosis activity Replicating form: Average MIC90 (uM); format: functional
[26] = test system: HepG2; assay: HepG2 CC50 (uM) Cytotoxicity; format: functional; details: Homo sapiens

## FC(F)(F)c1cnc(Sc2nnc(-c3ccncc3)o2)c(Cl)c1
[1]
  IC50: 270 nM
[2]
  IC50: 200 nM
[3]
  IC50: 470 nM
[4]
  Inhibition: 75%
[5]
  Inhibition: 0%
[6]
  inhibition at 10 µM: 28%

## O=C(NC1CC1)c1ccc(CSCc2ccccc2Cl)o1
[1]
  IC50: 1420 nM
[2]
  IC50: > 2000 nM
[4]
  Inhibition: 96%
[5]
  Inhibition: 14.9%
[6]
  inhibition at 10 µM: 33%

## O=C(C(Cc1c[nH]c2ccccc12)NS(=O)(=O)c1ccc(Cl)cc1)N1CCCCC1 (stereo not given)
[1]
  IC50: > 2000 nM
[2]
  IC50: 2000 nM
[4]
  Inhibition: 0%
[5]
  Inhibition: 23%
[7]
  CC20: 21900 nM
[6]
  inhibition at 10 µM: 9%

## c1ccc2c(c1)CN(CC1CC1)CC1(CCN(Cc3c[nH]c4cnccc34)CC1)O2
[1]
  IC50: 610 nM
[2]
  IC50: 1600 nM
[3]
  IC50: 2450 nM
[4]
  Inhibition: 89%
[5]
  Inhibition: 8.4%
[6]
  inhibition at 10 µM: 35%

## Cc1cc(NCC(C)C)c2[nH]nc(-c3ccccc3)c2n1
[1]
  IC50: 1400 nM
[3]
  IC50: 2380 nM
[6]
  inhibition at 10 µM: 9%

## O=C(NCCN1CCCC1)c1cc(NCCN2CCOCC2)nc2ccc(Cl)cc12
[1]
  IC50: 100 nM
[4]
  inhibition: Series known to be active
[5]
  inhibition: Series known to be active
[8]
  CC50: 33500 nM

## CCOc1ccccc1C(=O)Nc1cccc(-c2nc3ncccn3c2C)c1
[1]
  IC50: 1270 nM
[2]
  IC50: 2720 nM
[3]
  IC50: 1100 nM
[4]
  Inhibition: 94%
[5]
  Inhibition: 42.5%
[6]
  inhibition at 10 µM: 4%

## CC1(C)Cc2c(c(N3CCOCC3)nc3snc(Br)c23)CO1
[1]
  IC50: 290 nM
[2]
  IC50: 260 nM
[3]
  IC50: 370 nM
[4]
  Inhibition: 4%
[5]
  Inhibition: 1%
[6]
  inhibition at 10 µM: 4%

## Cc1cc(Cl)c(S(=O)(=O)N2CCCC2)cc1OCC(=O)NC1CCCCC1
[1]
  IC50: 300 nM
[2]
  IC50: 210 nM
[3]
  IC50: 160 nM
[4]
  Inhibition: 81%
[5]
  Inhibition: 0%
[6]
  inhibition at 10 µM: 32%

## Cc1ccc(-c2cc(C(=O)Nc3cccnc3)c3cc(Br)ccc3n2)cc1
[1]
  IC50: 100 nM
[4]
  inhibition: Series known to be active
[5]
  inhibition: Series known to be active
[8]
  CC50: 20000 nM

## O=C1O[C@@H](COc2ccon2)CN1c1cc(F)c(C2=CCN(Cc3ccccc3)CC2)c(F)c1
[9]
  MIC90: 2.88 µM (≈ 1.35 µg/mL)
[10]
  MIC: 0.78 µM (≈ 0.365 µg/mL)
[11]
  MIC: 1.56 µM (≈ 0.729 µg/mL)
[12]
  MIC: 0.39 µM (≈ 0.182 µg/mL)
[13]
  MIC: 0.6 µM (≈ 0.28 µg/mL)
[14]
  MIC: 0.39 µM (≈ 0.182 µg/mL)
[15]
  MIC: 0.78 µM (≈ 0.365 µg/mL)
[16]
  MIC: 0.78 µM (≈ 0.365 µg/mL)
[17]
  MIC: 1.56 µM (≈ 0.729 µg/mL)
[18]
  MIC: 1.56 µM (≈ 0.729 µg/mL)
[19]
  MIC: 1.2 µM (≈ 0.561 µg/mL)
[20]
  MIC: 0.6 µM (≈ 0.28 µg/mL)
[21]
  MIC90: 6.25 µM (≈ 2.92 µg/mL)
[22]
  MIC90: 6.25 µM (≈ 2.92 µg/mL)
[23]
  MIC90: 25 µM (≈ 11.7 µg/mL)
[24]
  MIC: 25 µM (≈ 11.7 µg/mL)
[25]
  MIC90: 3.51 µM (≈ 1.64 µg/mL)
[26]
  CC50: 30400 nM

## Cc1cc(OCC(=O)NCc2ccccc2)c2cc(Br)ccc2n1
[9]
  MIC90: 21.2 µM (≈ 8.17 µg/mL)
[10]
  MIC: 0.2 µM (≈ 0.0771 µg/mL)
[11]
  MIC: 0.39 µM (≈ 0.15 µg/mL)
[12]
  MIC: 50 µM (≈ 19.3 µg/mL)
[13]
  MIC: > 50 µM
[14]
  MIC: 4.7 µM (≈ 1.81 µg/mL)
[15]
  MIC: 37 µM (≈ 14.3 µg/mL)
[16]
  MIC: 50 µM (≈ 19.3 µg/mL)
[17]
  MIC: 3.13 µM (≈ 1.21 µg/mL)
[18]
  MIC: 25 µM (≈ 9.63 µg/mL)
[19]
  MIC: 2.3 µM (≈ 0.886 µg/mL)
[20]
  MIC: 1.56 µM (≈ 0.601 µg/mL)
[21]
  MIC90: 1.5 µM (≈ 0.578 µg/mL)
[22]
  MIC90: 6.25 µM (≈ 2.41 µg/mL)
[23]
  MIC90: 25 µM (≈ 9.63 µg/mL)
[24]
  MIC: > 50 µM
[25]
  MIC90: > 100 µM
[26]
  CC50: 31000 nM

## FC(F)(F)c1nnc2ccc(Cl)nn12
[9]
  MIC90: 7.75 µM (≈ 1.72 µg/mL)
[10]
  MIC: 0.6 µM (≈ 0.134 µg/mL)
[11]
  MIC: 1.2 µM (≈ 0.267 µg/mL)
[12]
  MIC: 3.13 µM (≈ 0.697 µg/mL)
[13]
  MIC: 6.25 µM (≈ 1.39 µg/mL)
[14]
  MIC: 4.7 µM (≈ 1.05 µg/mL)
[15]
  MIC: 3.13 µM (≈ 0.697 µg/mL)
[16]
  MIC: 4.7 µM (≈ 1.05 µg/mL)
[17]
  MIC: 4.7 µM (≈ 1.05 µg/mL)
[18]
  MIC: 6.25 µM (≈ 1.39 µg/mL)
[19]
  MIC: 4.7 µM (≈ 1.05 µg/mL)
[20]
  MIC: 6.25 µM (≈ 1.39 µg/mL)
[21]
  MIC90: 3.12 µM (≈ 0.694 µg/mL)
[22]
  MIC90: 50 µM (≈ 11.1 µg/mL)
[23]
  MIC90: > 50 µM
[24]
  MIC: > 50 µM
[25]
  MIC90: 6.37 µM (≈ 1.42 µg/mL)
[26]
  CC50: > 100000 nM

## Cc1cccc(Cn2ccc(NC(=O)c3ccc4c(c3)OCO4)n2)c1
[9]
  MIC90: 10.4 µM (≈ 3.48 µg/mL)
[10]
  MIC: 0.2 µM (≈ 0.0671 µg/mL)
[11]
  MIC: 0.3 µM (≈ 0.101 µg/mL)
[12]
  MIC: 9.4 µM (≈ 3.15 µg/mL)
[13]
  MIC: 25 µM (≈ 8.38 µg/mL)
[14]
  MIC: 12.5 µM (≈ 4.19 µg/mL)
[15]
  MIC: 12.5 µM (≈ 4.19 µg/mL)
[16]
  MIC: 25 µM (≈ 8.38 µg/mL)
[17]
  MIC: 9.4 µM (≈ 3.15 µg/mL)
[18]
  MIC: 19 µM (≈ 6.37 µg/mL)
[19]
  MIC: 9.4 µM (≈ 3.15 µg/mL)
[20]
  MIC: 9.4 µM (≈ 3.15 µg/mL)
[21]
  MIC90: 25 µM (≈ 8.38 µg/mL)
[22]
  MIC90: 50 µM (≈ 16.8 µg/mL)
[23]
  MIC90: 50 µM (≈ 16.8 µg/mL)
[24]
  MIC: 50 µM (≈ 16.8 µg/mL)
[25]
  MIC90: 22.6 µM (≈ 7.58 µg/mL)
[26]
  CC50: > 100000 nM

## Cn1ccnc1CNCCS(=O)(=O)c1cccc(Nc2ccc(-c3cccc(F)c3)cn2)c1
[9]
  MIC90: > 100 µM
[10]
  MIC: 25 µM (≈ 11.6 µg/mL)
[11]
  MIC: 25 µM (≈ 11.6 µg/mL)
[12]
  MIC: 50 µM (≈ 23.3 µg/mL)
[13]
  MIC: > 50 µM
[14]
  MIC: > 50 µM
[15]
  MIC: 19 µM (≈ 8.85 µg/mL)
[16]
  MIC: > 50 µM
[17]
  MIC: 12.5 µM (≈ 5.82 µg/mL)
[18]
  MIC: ≥ 50 µM
[19]
  MIC: 25 µM (≈ 11.6 µg/mL)
[20]
  MIC: 37 µM (≈ 17.2 µg/mL)
[21]
  MIC90: > 50 µM
[22]
  MIC90: > 50 µM
[23]
  MIC90: > 50 µM
[24]
  MIC: > 50 µM
[25]
  MIC90: > 100 µM
[26]
  CC50: 46100 nM

## c1coc(CNc2nc(N3CCCCC3)nc3ccccc23)c1
[9]
  MIC90: 27.8 µM (≈ 8.58 µg/mL)
[10]
  MIC: 9.4 µM (≈ 2.9 µg/mL)
[11]
  MIC: 9.4 µM (≈ 2.9 µg/mL)
[12]
  MIC: 19 µM (≈ 5.86 µg/mL)
[13]
  MIC: 25 µM (≈ 7.71 µg/mL)
[14]
  MIC: 25 µM (≈ 7.71 µg/mL)
[15]
  MIC: 6.25 µM (≈ 1.93 µg/mL)
[16]
  MIC: 12.5 µM (≈ 3.85 µg/mL)
[17]
  MIC: 6.25 µM (≈ 1.93 µg/mL)
[18]
  MIC: 9.4 µM (≈ 2.9 µg/mL)
[19]
  MIC: 4.7 µM (≈ 1.45 µg/mL)
[20]
  MIC: 6.25 µM (≈ 1.93 µg/mL)
[21]
  MIC90: 12.5 µM (≈ 3.85 µg/mL)
[22]
  MIC90: 25 µM (≈ 7.71 µg/mL)
[23]
  MIC90: 12.5 µM (≈ 3.85 µg/mL)
[24]
  MIC: 25 µM (≈ 7.71 µg/mL)
[25]
  MIC90: 8.41 µM (≈ 2.59 µg/mL)
[26]
  CC50: 18600 nM
